Assay results taken from PubChem BioAssay (NCI).
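Cultured in 96-well plates, cells were exposed to test compound for 48 hours across five concentrations. GI50 = concentration required for 50% inhibition of growth. TGI marks complete inhibition of growth.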

Experiments:
Assay in all cases: inhibition of tumour cell growth, NCI panel, 48 h
HCT-116 colon = test system: HCT-116 colon
MDA-MB-231 breast = test system: MDA-MB-231 breast
SK-MEL-2 melanoma = test system: SK-MEL-2 melanoma
SF-295 CNS = test system: SF-295 CNS
M14 melanoma = test system: M14 melanoma
SF-268 CNS = test system: SF-268 CNS
SK-MEL-28 melanoma = test system: SK-MEL-28 melanoma
UACC-62 melanoma = test system: UACC-62 melanoma
EKVX NSCLC = test system: EKVX NSCLC
A549 NSCLC = test system: A549 NSCLC
UO-31 renal = test system: UO-31 renal
SN12C renal = test system: SN12C renal
HOP-92 NSCLC = test system: HOP-92 NSCLC
SNB-75 CNS = test system: SNB-75 CNS
SF-539 CNS = test system: SF-539 CNS
SK-OV-3 ovarian = test system: SK-OV-3 ovarian
COLO 205 colon = test system: COLO 205 colon
ACHN renal = test system: ACHN renal
HT29 colon = test system: HT29 colon
OVCAR-5 ovarian = test system: OVCAR-5 ovarian
BT-549 breast = test system: BT-549 breast
NCI-H226 lung = test system: NCI-H226 lung
HCT-15 colon = test system: HCT-15 colon
CAKI-1 renal = test system: CAKI-1 renal
OVCAR-3 ovarian = test system: OVCAR-3 ovarian
KM12 colon = test system: KM12 colon
MALME-3M melanoma = test system: MALME-3M melanoma

O=[N+]([O-])c1ccc(N/N=C/c2ccccc2O)nc1
TGI (HCT-116 colon): > 100 µM | GI50 (MDA-MB-231 breast): 1460 nM | TGI (MDA-MB-231 breast): > 100 µM | GI50 (SK-MEL-2 melanoma): 3 µM | TGI (SK-MEL-2 melanoma): > 100 µM | GI50 (SF-295 CNS): 2920 nM | TGI (SF-295 CNS): > 100 µM | GI50 (M14 melanoma): 1660 nM | TGI (M14 melanoma): > 100 µM | GI50 (SF-268 CNS): 1260 nM | TGI (SF-268 CNS): > 100 µM | GI50 (SK-MEL-28 melanoma): 4.38 µM | TGI (SK-MEL-28 melanoma): > 100 µM | GI50 (UACC-62 melanoma): 2610 nM | TGI (UACC-62 melanoma): 11.6 µM | GI50 (EKVX NSCLC): 3.58 µM | TGI (EKVX NSCLC): > 100 µM | GI50 (A549 NSCLC): 2070 nM | TGI (A549 NSCLC): > 100 µM | GI50 (UO-31 renal): 623 nM | TGI (UO-31 renal): > 100 µM | GI50 (SN12C renal): 2170 nM | TGI (SN12C renal): > 100 µM | GI50 (HOP-92 NSCLC): 3.74 µM | TGI (HOP-92 NSCLC): > 100 µM | GI50 (SNB-75 CNS): 10.6 µM | TGI (SNB-75 CNS): > 100 µM | GI50 (SF-539 CNS): 2680 nM | TGI (SF-539 CNS): > 100 µM | GI50 (SK-OV-3 ovarian): 2540 nM | TGI (SK-OV-3 ovarian): > 100 µM | GI50 (COLO 205 colon): 544 nM | TGI (COLO 205 colon): > 100 µM | GI50 (ACHN renal): 594 nM | TGI (ACHN renal): > 100 µM | GI50 (HT29 colon): 975 nM | TGI (HT29 colon): > 100 µM | GI50 (OVCAR-5 ovarian): 7.33 µM | TGI (OVCAR-5 ovarian): > 100 µM | GI50 (BT-549 breast): 6.08 µM | TGI (BT-549 breast): > 100 µM | GI50 (NCI-H226 lung): 4.6 µM | TGI (NCI-H226 lung): > 100 µM | GI50 (HCT-15 colon): 639 nM | TGI (HCT-15 colon): > 100 µM | GI50 (CAKI-1 renal): 738 nM | TGI (CAKI-1 renal): 8.37 µM | GI50 (OVCAR-3 ovarian): 368 nM | TGI (OVCAR-3 ovarian): > 100 µM | GI50 (KM12 colon): 1190 nM | TGI (KM12 colon): > 100 µM | GI50 (MALME-3M melanoma): 5.8 µM | TGI (MALME-3M melanoma): > 100 µM
